Measurements published in article PMC10424242, “Macrocyclic Peptidomimetic Plasmepsin X Inhibitors with Potent In Vitro and In Vivo Antimalarial Activity” (Journal of Medicinal Chemistry, 2023).
“Also recorded” adds a separate entry of the source. Where two headings read alike, the source gives them in different places.

Key:
[1] = target: recombinant P. falciparum PMX (Plasmodium falciparum, UniProt Q8IAS0); assay: Recombinant P. falciparum PMX inhibition assay (fluorogenic substrate Rh2N); format: biochemical
recombinant P. falciparum PMX, sequence (Q8IAS0 222-573): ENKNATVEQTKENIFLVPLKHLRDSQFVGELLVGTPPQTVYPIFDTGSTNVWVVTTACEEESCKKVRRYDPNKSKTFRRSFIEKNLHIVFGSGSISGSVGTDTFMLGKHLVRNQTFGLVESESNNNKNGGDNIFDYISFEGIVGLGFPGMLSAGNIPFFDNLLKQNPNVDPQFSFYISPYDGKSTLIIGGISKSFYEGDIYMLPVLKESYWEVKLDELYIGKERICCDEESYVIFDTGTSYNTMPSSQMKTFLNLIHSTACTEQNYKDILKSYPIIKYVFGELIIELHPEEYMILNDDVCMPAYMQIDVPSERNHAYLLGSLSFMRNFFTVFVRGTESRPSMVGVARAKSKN
Method: The fluorescence of this peptide is quenched by the spatial proximity of the DABCYL/EDANS groups in the uncleaved peptide and is increased upon cleavage at the internal F–I bond. […] Control wells contained no inhibitor, and the plate was blanked against the substrate only in DB. […] All experiments were performed in duplicate.

PMIV = PMIV (Plasmodium falciparum, UniProt Q8IM16); assay: FRET-based PMIV inhibition assay; format: biochemical, P. falciparum
PMIV, sequence (Q8IM16 122-449): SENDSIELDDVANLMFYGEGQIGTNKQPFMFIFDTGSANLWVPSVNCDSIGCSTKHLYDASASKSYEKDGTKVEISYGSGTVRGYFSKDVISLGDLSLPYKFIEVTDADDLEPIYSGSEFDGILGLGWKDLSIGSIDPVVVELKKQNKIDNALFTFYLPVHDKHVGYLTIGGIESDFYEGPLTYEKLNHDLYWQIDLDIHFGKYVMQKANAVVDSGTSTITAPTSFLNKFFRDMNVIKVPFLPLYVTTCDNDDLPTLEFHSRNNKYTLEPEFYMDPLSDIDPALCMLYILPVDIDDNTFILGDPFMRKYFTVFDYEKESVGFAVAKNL
Method: (§1) A fluorescence resonance energy transfer (FRET)-based assay was performed to assess the ability of the compounds to inhibit PMIV, CatD, and BACE1. Serial dilutions of test compounds were dispensed in a white 96-well plate. […] The mixture was incubated for 20 min at 37 °C. […] IC50 values were calculated with GraphPad Prism 8.0 using the nonlinear regression, variable slope (four parameters). Compounds were tested in triplicate.

BACE1 = BACE1 (Homo sapiens, UniProt P56817); assay: FRET-based BACE1 inhibition assay (selectivity counter screen); format: biochemical
BACE1, sequence (P56817 46-501): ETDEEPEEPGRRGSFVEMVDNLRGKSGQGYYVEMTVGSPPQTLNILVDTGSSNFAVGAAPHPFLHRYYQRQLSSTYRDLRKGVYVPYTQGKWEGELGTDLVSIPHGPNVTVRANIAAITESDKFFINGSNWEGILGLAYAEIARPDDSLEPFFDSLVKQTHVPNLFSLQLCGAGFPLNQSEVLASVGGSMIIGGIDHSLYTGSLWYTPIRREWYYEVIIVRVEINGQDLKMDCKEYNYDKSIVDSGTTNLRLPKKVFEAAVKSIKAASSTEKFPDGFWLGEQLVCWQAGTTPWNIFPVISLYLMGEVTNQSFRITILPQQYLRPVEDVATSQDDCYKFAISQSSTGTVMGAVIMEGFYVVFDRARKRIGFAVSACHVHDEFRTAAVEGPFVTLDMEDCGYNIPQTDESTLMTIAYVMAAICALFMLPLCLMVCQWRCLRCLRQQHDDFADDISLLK
Method: as §1

[2] = Plasma protein binding (rapid equilibrium dialysis); format: in vitro ADME; conditions: pH 7.4, mouse plasma, 2 h at 37 °C
Method: Plasma protein binding was performed with rapid equilibrium dialysis (RED) device inserts containing a dialysis membrane with a molecular weight cut-off of 8000 Daltons. Inserts were placed in the single-use RED plate without prior preparation.
The test compound at a concentration of 5 μM was added to mouse plasma and dialyzed against phosphate-buffered saline (PBS, pH 7.4) for 2 h at 37 °C. Propranolol hydrochloride was used as a positive control (high PPB), and fluconazole was used as negative control (low PPB). After dialysis, the drug concentration in the buffer and plasma compartments was quantified by liquid chromatography and tandem mass spectrometry (LC-MS/MS) analysis.

[3] = Tolerability testing in mice; format: in vivo, NMRI female mice; conditions: p.os 50 mg/kg up to 24 h, 0–6 score system
Method: NMRI female mice (10–12 weeks old, 29–32 g) were obtained from ENVIGO (The Netherlands) and housed prior to treatment under standard conditions (acclimatization period of 1 week, 21–23 °C, 12-h light/dark cycle, relative humidity 45–65%) with unlimited access to food (R70 diet from Lantmännen) and water. The experimental procedures were performed in accordance with the guidelines of the European Community and local laws and policies (Directive 2010/63/EU), and all of the procedures were approved by Food and Veterinary Service, Riga, Latvia. Animals were weighed on the day of the treatment (before treatment) to calculate the required amount of compound for the corresponding dose. For tolerability and PK studies, the mice were dosed via a peroral (PO) bolus administration (volume 10 mL/kg). Toxicity signs were scored 0–2, 5, 10, 15, 30, 60, 120, 240 min, and 24 h after administration using a widely used 0–6 score system.

[4] = Drug blood concentrations in PfalcHuMice during efficacy testing; format: in vivo; conditions: for total Cmin: PfalcHuMouse, 40 mg/kg p.o.
Method: The concentrations of drugs were measured in samples of peripheral blood (25 μL) taken at different times after the first dosing, mixed with 25 μL of Milli-Q H2O, and immediately frozen on a thermal block at −80 °C. The frozen samples were stored at −80 °C until analysis. Blood from control humanized mice was used for the preparation of standard curves, calibration, and quality control purposes. The drugs were extracted from 10 μL of lysates obtained by protein precipitation of blood samples using standard liquid–liquid extraction methods. The samples were analyzed by LC-MS/MS for quantification in a Waters Micromass UPLC-TQD (Waters, Manchester, U.K.). Blood concentration vs time was analyzed by non-compartmental analysis (NCA) using Phoenix WinNonlin vers.9.2 (Certara) or R or Excel (Microsoft), from which exposure-related values (tmax, Cmax, and AUC0–t) were estimated.

[5] = tested on: P. falciparum 3D7 parasites; assay: Microscopy of synchronized P. falciparum cultures treated from ring stage (development and egress); format: cell-based; conditions: 20 nM
Method: Asexual blood-stage forms of P. falciparum strains 3D7 and Dd2 were maintained at 37 °C in an atmosphere of 1% O2, 5% CO2, and 94% N2 in human RBCs in RPMI 1640 medium containing AlbuMAX II (Thermo Fisher Scientific) and supplemented with 2 mM L-glutamine. The synchronization of parasite cultures was as described previously.[39] Briefly, this involved isolating mature schizont forms by centrifugation over cushions of 70% (v/v) isotonic Percoll (GE Healthcare, Life Sciences) and then allowing the parasites to undergo rupture in the presence of fresh RBCs for 2 h under gentle shaking conditions (100 rpm). Residual schizonts were then removed through a second Percoll separation, followed by treatment with 5% (w/v) sorbitol to finally obtain a highly synchronized preparation of newly invaded ring-stage parasites.
Growth stage progression and parasite morphology were also monitored by microscopic examination at selected time points using Giemsa-stained thin blood films.

[6] = tested on: maturation of the PMX substrate SUB1 (p54 to p47); assay: Western blot of SUB1 maturation in treated schizonts; format: cell-based, P. falciparum; conditions: 20 nM, 44 h
Method: This phenotype is characteristic of the inhibition of PMX.
(§2) Synchronous parasite cultures were cultured from ring to schizont stage (∼44 h) in the presence of DMSO alone (0.04% v/v; control) or macrocycle compounds (20 nM final concentration). Schizonts were isolated by Percoll enrichment (still in the presence of the test compound), then either immediately frozen or further incubated in the absence of the drug but in the presence of C2 (1 μM) for 1 h at 37°C in the absence of added RBCs or for 3.5 h in the presence of added RBCs. The schizonts without added RBCs were then frozen too, and all schizont samples were then thawed into CHAPS–urea extraction buffer, subjected to sodium dodecyl sulfate-polyacrylamide gel electrophoresis (SDS-PAGE), and analyzed by Western blot, probing with antibodies against SUB1 or RAP1. For schizonts cultured in the presence of added RBCs, ring formation was assessed in two ways: cultures were examined microscopically by Giemsa stain of thin films and were also fixed with glutaraldehyde and processed for quantification of ring formation by flow cytometry as described above.

[7] = tested on: maturation of RAP1, substrate of PMIX; assay: Western blot of RAP1 maturation in treated schizonts; format: cell-based, P. falciparum; conditions: 20 nM, 44 h
Description: Figure 4 Macrocycle PMX inhibitors have no effect on intraerythrocytic parasite maturation but prevent egress and maturation of SUB1. […] Scale bar, 20 μm. (B) Simplified schematic of proteolytic maturation of the egress effector SUB1. Conversion of the precursor form to p54 is through autocatalytic removal[32] of the prodomain region (PD), whereas conversion of p54 to p47 is mediated by PMX.[15],[16],[33] (C) Left, Western blot analysis of P. falciparum 3D7 schizonts allowed to mature in the presence of the indicated macrocycle compounds (20 nM), showing defective SUB1 maturation in parasites treated with the indicated macrocycle compounds. Right, Western blot of the same extracts probed with a monoclonal antibody (mAb) specific to the rhoptry protein RAP1, which is a substrate for cleavage by the related P. falciparum protease PMIX. The compounds had no discernible effect on the maturation of RAP1. The results shown are typical of 3 independent experiments.
as §2

P. falciparum schizonts = assay: Washout assay, schizont rupture and new ring formation; format: cell-based; conditions: 20 nM ∼44 h, […] with added RBCs
Method: The schizont cultures lacking added RBCs were supplemented with compound C2, which blocks the discharge of exonemes, the parasite secretory organelles in which PMX and SUB1 are stored before egress. The schizonts without added RBCs were sampled for Western blot analysis, while the schizont cultures containing RBCs were examined by microscopy and flow cytometry after a further 4 h in culture to quantify schizont rupture and new ring formation.
as §2

CCCN1CCCCCc2cccc(c2)C[C@@H]([C@H](O)CNC(C)(C)c2cccc(OC)c2)NC(=O)c2cccc(c2)C1=O [7k, (S)-4-((R)-1-Hydroxy-2-((2-(3-methoxyphenyl)propan-2-yl)amino)ethyl)-12-propyl-3,12-diaza-1,6(1,3)-dibenzenacyclotridecaphane-2,13-dione]
IC50 ([1]; Table 3, read-out: PMX, nM (as listed in Table 3)): 0.4 ± 0.03 nM | improvement of PMX inhibitory potency ([1]; compared to 7a): 10 fold | IC50 ([1]; recombinant PMX, read-out: PMX, nM (IC50)): 0.4 ± 0.03 nM | IC50 (PMIV; Table 3, read-out: PMIV, nM (as listed in Table 3)): 17 ± 2 nM | improvement of PMIV inhibitory potency (PMIV; compared to 7a): 3 fold | IC50 (PMIV; read-out: PMIV, nM (IC50)): 17 ± 2 nM | IC50 (BACE1): 2030 ± 100 nM | fraction unbound at 2 h, 5 µM [2]: 0.0027 | tolerability [3]: No adverse effects were observed; also recorded: no toxic effect (score 0) | total Cmin ([4]; BID): 32 ng/mL | total Cmin ([4]; TID): 85 ng/mL | total Cmin ([4]; UID): 51 ng/mL | pharmacokinetic modeling of concentrations over the period of administration ([4]; plasma concentration at 71.0, 72.5, 73.0 and 78.0 hours post-treatment): rapid absorption with no accumulation | intraerythrocytic development of ring-stage parasites to schizont stage ([5]; 44 h): Development of ring-stage parasites to the multinucleated schizont stage occurred similarly in all cultures | schizont rupture (egress) and appearance of new rings ([5]; 44 h and extended incubation): schizont rupture and appearance of new rings did not occur | maturation of SUB1 (p54 to p47) [6]: clear defect in maturation of the PMX substrate SUB1 | maturation of RAP (PMIX substrate) [7]: do not affect PMIX activity at these concentrations | new ring formation after washout (P. falciparum schizonts): minimal rings were produced
